Laboratory results published in ChEMBL document CHEMBL4665641, “Lead optimization and efficacy evaluation of quinazoline-based BET family inhibitors for potential treatment of cancer and inflammatory diseases” (Bioorg Med Chem Lett, 2019).
pIC50, pKd: −log10 of the molar value. Activity calls are given as the source filed them. The calls are words filed in the database; no cut-off is given here.

What was measured:
[1] = system: Kasumi 1; assay: Antitumor activity against human Kasumi-1 cells xenografted in CB17 SCID mouse assessed as inhibition of tumor growth at 10 mg/kg, po QD for 25 days; type: functional; conditions: Kasumi 1, po, 600 h, time 25 day, read-out: TGI
[2] = system: Kasumi 1; assay: Antitumor activity against human Kasumi-1 cells xenografted in CB17 SCID mouse assessed as tumor weight at 40 mg/kg, po QD for 25 days (reference value: 2.57 +/-0.27 g); type: functional; conditions: time 25 day
[3] = system: Kasumi 1; assay: Antitumor activity against human Kasumi-1 cells xenografted in CB17 SCID mouse assessed as inhibition of tumor growth at 40 mg/kg, po QD for 25 days; type: functional; conditions: Kasumi 1, po, 600 h, time 25 day, read-out: TGI
[4] = system: Kasumi 1; assay: Antitumor activity against human Kasumi-1 cells xenografted in CB17 SCID mouse assessed as tumor weight at 10 mg/kg, po administered for 25 days (reference value: 2.57 +/- 0.27 g); type: functional; conditions: time 25 day
[5] = molecular target: T1, Bromodomain-containing protein 4 (Homo sapiens, UniProt O60885); assay: Competitive binding affinity to human partial length BRD4 (BD1,2) (N44 to E460 residues) expressed in bacterial expression system by BROMOscan assay
[6] = system: MV4-11; assay: Cytotoxicity against human MV4-11 cells assessed as inhibition of cell viability; type: functional, cell-based
[7] = Cmax in CD-1 mouse at 10 mg/kg, po; type: ADME, organism-based; design: route oral, dose 10 mg/kg; conditions: CD-1, mouse, in vivo, read-out: Cmax
[8] = AUC(0 to infinity) in CD-1 mouse at 2 mg/kg, iv; type: ADME, organism-based; design: time infinity, route intravenous, dose 2 mg/kg; conditions: mouse, in vivo
[9] = AUC(0 to infinity) in CD-1 mouse at 10 mg/kg, po; type: ADME, organism-based; design: route oral, time infinity, dose 10 mg/kg; conditions: mouse, in vivo
[10] = Stability in rat liver microsomes assessed as half life; type: ADME, Microsome
[11] = Toxicity in CD1 mouse assessed as clinical abnormalities at 50 to 100 mg/kg, po administered once daily for 5 days and observed for 5 days after last dose; type: organism-based; conditions: in vivo, 120 h, dose 50-100 mg/kg, time 5 day
[12] = molecular target: Cytochrome P450 2C9 (Homo sapiens, UniProt P11712); assay: Inhibition of human CYP2C9 at […]; type: ADME; conditions: dose 2.1 µM
[13] = system: Kasumi 1; assay: Antitumor activity against human Kasumi-1 cells xenografted in CB17 SCID mouse assessed as tumor volume at 10 mg/kg, po QD for 25 days (reference value: 2189 +/- 604 mm3); type: functional; conditions: time 25 day
[14] = Toxicity in CB17 SCID mouse xenografted with human Kasumi-1 cells assessed body weight loss at 10 to 40 mg/kg, po QD for 25 days; type: organism-based; conditions: in vivo, 600 h, dose 10-40 mg/kg, time 25 day
[15] = Toxicity in collagen/CFA induced arthritis DBA/1 mouse model assessed as body weight at 50 mg/kg, po administered via gavage starting from day 21 to day 41 post collagen/CFA challenge and measured on day 21 relative to initial weight (reference value: 94.96%); type: organism-based; conditions: in vivo, 504 h, time 21 day
[16] = system: Mus musculus; assay: Antiarthritic activity in collagen/complete freund's adjuvant-induced DBA/1 mouse model of arthritis assessed as reduction in joint inflammation at 50 mg/kg, po administered via gavage starting from day 21 to day 41 post collagen/CFA challenge and measured on day 42 by H&E staining based analysis; type: functional, organism-based; conditions: time 21.0 day
[17] = system: Mus musculus; assay: Antiarthritic activity in collagen/complete freund's adjuvant-induced arthritis DBA/1 mouse model assessed as reduction in histological damage of hind paw at 50 mg/kg, po administered via gavage starting from day 21 to day 41 post collagen/CFA challenge and measured on day 42 by hematoxylin-eosin staining based assay; type: functional, organism-based; conditions: time 21.0 day
[18] = system: Mus musculus; assay: Antiinflammatory activity in collagen/complete freund's adjuvant-induced arthritis DBA/1 mouse model assessed as IL-1 beta level in rear right paw at 50 mg/kg, po administered via gavage starting from day 21 to day 41 post collagen/CFA challenge and measured on day 42 measured per mg protein (reference value: 3.15 pg); type: functional; conditions: time 21 day
[19] = system: Mus musculus; assay: Antiinflammatory activity in collagen/complete freund's adjuvant-induced arthritis DBA/1 mouse model assessed as IL-6 level in rear right paw at 50 mg/kg, po administered via gavage starting from day 21 to day 41 post collagen/CFA challenge and measured on day 42 measured per mg protein (reference value: 180.7 pg); type: functional; conditions: time 21 day
[20] = system: Kasumi 1; assay: Antitumor activity against human Kasumi-1 cells xenografted in CB17 SCID mouse assessed as tumor volume at 10 mg/kg, po QD for 29 days (reference value: 1734 +/- 220 mm3); type: functional; conditions: time 29 day
[21] = Apparent permeability across basolateral to apical side in human Caco2 cells; type: ADME, cell-based; conditions: caco-2
[22] = system: Kasumi 1; assay: Antitumor activity against human Kasumi-1 cells xenografted in CB17 SCID mouse assessed as tumor weight at 10 mg/kg, po QD for 29 days (reference value: 2.1+/- 0.3 g); type: functional; conditions: time 29 day
[23] = system: Kasumi 1; assay: Antitumor activity against human Kasumi-1 cells xenografted in CB17 SCID mouse assessed as inhibition of tumor growth at 10 mg/kg, po QD for 29 days; type: functional; conditions: Kasumi 1, po, 696 h, time 29 day, read-out: TGI
[24] = system: Mus musculus; assay: Antiarthritic activity in collagen/complete freund's adjuvant-induced arthritis DBA/1 mouse model assessed as reduction in inflammatory symptoms at 50 mg/kg, po administered via gavage once daily starting from day 21 to day 41 post collagen/CFA challenge and measured from day 13 to 42; type: functional, organism-based; conditions: time 21.0 day
[25] = system: Mus musculus; assay: Antiinflammatory activity in collagen/complete freund's adjuvant-induced arthritis DBA/1 mouse model assessed as VEGF level in rear right paw at 50 mg/kg, po administered via gavage starting from day 21 to day 41 post collagen/CFA challenge and measured on day 42 measured per mg protein (reference value: 0.98 pg); type: functional; conditions: time 21 day
[26] = molecular target: T1, Bromodomain-containing protein 4; assay: Inhibition of human full-length recombinant N-terminal His-tagged BRD4 (2 to 1362 residues) expressed in Sf9 cells using histone H4 peptide containing acetylated lysine residues as substrate preincubated with enzyme for 30 mins followed by incubation with substrate for 30 mins by Alphascreen assay […]
[27] = molecular target: T2, Bromodomain-containing protein 3 (Homo sapiens, UniProt Q15059); assay: Binding affinity to human partial length BRD3 (BD1) (P24 to E144 residues) expressed in bacterial expression system by BROMOscan assay
[28] = molecular target: T2, Bromodomain-containing protein 3; assay: Binding affinity to human partial length BRD3 (BD1,2) (P24 to P416 residues) expressed in bacterial expression system by BROMOscan assay
[29] = molecular target: T2, Bromodomain-containing protein 3; assay: Binding affinity to human partial length BRD3 (BD2) (G306 to P416 residues) expressed in bacterial expression system by BROMOscan assay
[30] = molecular target: T1, Bromodomain-containing protein 4; assay: Binding affinity to human partial length BRD4 (BD2) (K333 to E460 residues) expressed in bacterial expression system by BROMOscan assay
[31] = molecular target: T3, Bromodomain testis-specific protein (Homo sapiens, UniProt Q58F21); assay: Binding affinity to human partial length BRDT (BD1) (N21 to E137 residues) expressed in bacterial expression system by BROMOscan assay
[32] = molecular target: T3, Bromodomain testis-specific protein; assay: Binding affinity to human partial length BRDT (BD2) (K250 to E382 residues) expressed in bacterial expression system by BROMOscan assay

T2 sequence (Q15059 whole entry, the tested form may be a part): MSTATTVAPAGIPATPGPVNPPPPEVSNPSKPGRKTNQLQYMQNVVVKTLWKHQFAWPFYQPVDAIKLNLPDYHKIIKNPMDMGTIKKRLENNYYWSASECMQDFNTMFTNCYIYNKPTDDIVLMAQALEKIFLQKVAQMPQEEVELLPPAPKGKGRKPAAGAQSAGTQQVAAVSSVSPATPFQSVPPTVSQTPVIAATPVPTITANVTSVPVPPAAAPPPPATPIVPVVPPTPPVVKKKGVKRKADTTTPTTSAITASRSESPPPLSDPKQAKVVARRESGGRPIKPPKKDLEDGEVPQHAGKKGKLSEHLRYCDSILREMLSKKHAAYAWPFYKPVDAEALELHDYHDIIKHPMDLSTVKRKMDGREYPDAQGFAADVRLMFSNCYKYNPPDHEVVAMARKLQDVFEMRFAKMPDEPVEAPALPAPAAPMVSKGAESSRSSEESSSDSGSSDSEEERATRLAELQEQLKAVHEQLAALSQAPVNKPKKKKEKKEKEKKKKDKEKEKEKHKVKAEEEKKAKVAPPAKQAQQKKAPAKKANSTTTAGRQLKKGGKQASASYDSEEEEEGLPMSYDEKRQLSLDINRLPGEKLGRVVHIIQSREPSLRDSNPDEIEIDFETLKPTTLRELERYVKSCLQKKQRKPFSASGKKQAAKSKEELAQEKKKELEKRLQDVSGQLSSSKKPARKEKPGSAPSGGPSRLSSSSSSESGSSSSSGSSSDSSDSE
Cytochrome P450 2C9, sequence (P11712 whole entry): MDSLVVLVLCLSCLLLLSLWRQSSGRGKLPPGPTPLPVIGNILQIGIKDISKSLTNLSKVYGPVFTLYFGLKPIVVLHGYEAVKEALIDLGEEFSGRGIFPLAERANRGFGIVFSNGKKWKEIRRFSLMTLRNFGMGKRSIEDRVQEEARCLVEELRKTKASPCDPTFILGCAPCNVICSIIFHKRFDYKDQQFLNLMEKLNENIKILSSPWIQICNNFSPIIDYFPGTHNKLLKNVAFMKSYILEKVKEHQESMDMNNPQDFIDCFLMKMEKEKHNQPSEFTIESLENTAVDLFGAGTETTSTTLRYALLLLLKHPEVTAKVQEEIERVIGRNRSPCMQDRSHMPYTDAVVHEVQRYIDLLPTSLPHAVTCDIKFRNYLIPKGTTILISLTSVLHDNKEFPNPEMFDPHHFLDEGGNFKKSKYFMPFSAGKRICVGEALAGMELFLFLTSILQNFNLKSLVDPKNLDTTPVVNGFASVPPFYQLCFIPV

Question: With `Cc1noc(C)c1-c1ccc2nc(-c3cnn(CC(C)(C)O)c3)nc(N3CCOC[C@@H]3c3ccccc3)c2c1` as the molecule, how does the inhibition in vivo at 10 mg/kg [1] read?
Answer: 41.4%

Question: What about the Activity [2] of the same molecule?
Answer: 0.04 g

Question: What about the inhibition in vivo at 40 mg/kg [3] of the same molecule?
Answer: 98.6%

Question: What about the Activity [4] of the same molecule?
Answer: 1.51 g

Question: And the pKd [5]?
Answer: 7.15

Question: What about the pIC50 [6] of the same molecule?
Answer: 6.03

Question: What about the Cmax [7] of the same molecule?
Answer: 2160 ng/mL

Question: What about the AUC [8] of the same molecule?
Answer: 5025 ng·h/mL

Question: And the AUC [9]?
Answer: 18927 ng·h/mL

Question: What about the half-life [10] of the same molecule?
Answer: 42 min

Question: What about the Activity [11] of the same molecule?
Answer: Non-Toxic

Question: And the INH [12]?
Answer: Active

Question: And the Activity [13]?
Answer: 1303 mm3

Question: And the Activity [14]?
Answer: Non-Toxic

Question: What about the Activity [15] of the same molecule?
Answer: 101.92%

Question: What about the Activity [16] of the same molecule?
Answer: Active

Question: And the Activity [17]?
Answer: Active

Question: And the Activity [18]?
Answer: 2.06 pg

Question: What about the Activity [19] of the same molecule?
Answer: 21.62 pg

Question: And the Activity [20]?
Answer: 1036 mm3

Question: And the Papp [21]?
Answer: 18.4 10^-6 cm/s

Question: And the Activity [22]?
Answer: 1.22 g

Question: What about the inhibition in vivo at 10 mg/kg [23] of the same molecule?
Answer: 41.9%

Question: What about the Activity [24] of the same molecule?
Answer: Active

Question: And the Activity [25]?
Answer: 1.6 pg

Question: And the pIC50 [26]?
Answer: 7.85

Question: What about the pKd [27] of the same molecule?
Answer: 7.96

Question: And the pKd [28]?
Answer: 7.54

Question: And the pKd [29]?
Answer: 7.36

Question: What about the pKd [30] of the same molecule?
Answer: 7.09

Question: And the pKd [31]?
Answer: 7.12

Question: What about the pKd [32] of the same molecule?
Answer: 6.80
